From patent EP0942896B1, “SUBSTITUTED PHENOLS AND THIOPHENOLS USEFUL AS ANTIOXIDANT AGENTS” (Aventis Pharmaceuticals Inc., priority 1996, dated 1998)
Read-outs that look alike come from different tables or passages of the source.

Tests used:
[1] = system: Male Sprague-Dawley Rats; assay: Serum clinical chemistries in rats fed compound as dietary admixture; assay type: in vivo; conditions: % of control, diet 0.3%, 4 days, N = 5; for ALT: alanine aminotransferase in rat serum; for ALP: alkaline phosphatase in rat serum; for AST: aspartate aminotransferase in rat serum; for GLUC: glucose in rat serum; for response vs control in vivo at 0.3 % in diet: feed or water, 96 h
Text: (§1) A typical experiment consists of 4-6 groups of rats (N = 5 per group) with I group being a control which receives no MDL compound and the other groups being treated with 0.3% MDL compound. Some of the compounds are either repeated at 0.3% or evaluated again at the lower dose of 0.1%. House Male Sprague-Dawley rats, 50-100 g, (Harlan Laboratories, Indianapolis, IN) in groups of 5, feeding ad libitum water and Purina Rodent chow (#5002) with or without MDL compound as a dietary admixture for 4 days. Make dietary admixtures (0.3%) by mixing 1.2 grams of an MDL compound with 400 grams of Purina rodent chow (#5002). Mix the MDL compound with approximately 50 grams of food using a mortar and pestle. This is added to the remainder of the food and mixed for 3 hours on a rotary mixer. In the morning of day 5, anesthetize non-fasted rats with carbon dioxide, and collect blood by cardiac puncture. Sacrifice rats by cervical dislocation. Record body weights and liver weights in grams. Record food consumption as grams • day^-1 • rat^-1. Deaths are recorded as mortality. Use aliquots of fresh serum for clinical chemistries, thiobarbituric acid reactive substances (TBARS) and conjugated diene measurements. Freeze aliquots of serum (∼ 0.5mL) and whole livers at -20°C for compound and metabolite concentration determination at a later time.
Allow blood to clot at room temperature for 30 minutes. Obtain serum after centrifugation for 10 min at 4°C at 3000 rpm in a Beckman J-6M/E centrifuge with a JS-4.2 rotor. Analyze fresh serum by a COBAS MIRA S autoanalyzer (Roche Diagnostics) using Roche diagnostic reagents for the following clinical chemistry measurements: alkaline phosphatase (ALP, kit # 44553), alanine transaminase (ALT, kit # 42375), aspartate aminotransferase (AST, kit # 42381), total cholesterol (CHOL, kit # 44334), triglyceride (TG, kit # 44120), and glucose (GLU, kit # 44558). Calculate ALP, ALT, and AST as units/L. Calculate cholesterol, triglycerides, and glucose as mg/dL.

[2] = HPLC quantitation of compound and metabolite concentration in rat serum and liver; assay type: in vivo; conditions: male, Sprague-Dawley, oral, 0.3 % in chow, diet 0.3%, 4 days, mean N = 5
Text: as §1
Determine serum and liver concentrations of parent compound and the metabolites, bisphenol and diphenoquinone, by reverse phase HPLC using a Waters 990 Powerline system. Homegenize livers (1 gram samples) with 5.0mL PBS, pH 7.4, using a Polytron tissue homogenizer at setting 5 for 20-30 seconds. Extract serum or liver homogenates as follows: add 100µL of either serum or homogenate to 2.0mL diethyl ether: ethanol (3:1) while vortexing the tube. Cap the sample tubes and centrifuge for 10 min at 5°C at 3500 rpm in a Beckman GPKR centrifuge with a GH 3.7 rotor. Transfer the supernatants to clean tubes and dry under N2. Reconstitute samples with 200µL of acetonitrile : hexane : 0.1 M ammonium acetate (90: 6.5 : 3.5, by vol.). Then, inject 100µL onto a Waters Deltapak C18-300 Å column, and elute with an 83% acetonitrile : 17% water mobile phase at a flow rate of 1.5mL/min. Record absorbances at the wavelengths of 240, 254, and 420nm. Calculate compound concentrations from known quantities of authentic parent compounds after correction for recovery. […]. Calculate concentrations as µg/mL of serum and µg/g of liver.

[3] = system: oxidation of lipids; assay: Conjugated diene lag phase determination on pooled serum of treated rats; assay type: in vivo, Male Sprague-Dawley rats; conditions: not normalized, mean of 2 determinations of pooled rat serum (N = 5), diet 0.3%, 4 days
Text: as §1
Conjugated diene lag phase is another indicator of the oxidation of lipids. Lipids exposed to Cu^++ form conjugated dienes that absorb ultraviolet light in the range of 230 to 235 nm. The lag phase of diene formation gives an indication of the amount of oxidation of the lipids. A lag phase longer than control samples indicate inhibition of the oxidation. Determine conjugated diene lay phase using a Varian DMS200 spectrophotometer (fitted with a constant temperature, 5 cuvette sample changer) at 30°C. Add twenty (20) µL of pooled serum to cuvettes containing 3.0mL phosphate buffered saline, pH 7.5, and mix. Measure the absorbances of all cuvettes and set the instrument baseline to zero using the lowest absorbing sample. Next, add 100µL of 1 mmol CuSO4 and mix immediately. Record the absorbance of each cuvette at 2 min intervals for a period of 840 min. Capture the data and transfer to a Microsoft EXCEL® spreadsheet where the curves are smoothed and differentials obtained. Determine lag times mathematically as minutes. Pool serum samples (N = 5); data presented are the mean values of 2 determinations. Compare serum samples from treated rats to serum samples from control rats that received no MDL compound.

[4] = system: oxidation of serum lipids; assay: TBARS assay on serum of treated rats (CuSO4-initiated oxidation); assay type: in vivo, Male Sprague-Dawley rats; conditions: % of control; thiobarbituric acid reactive substances as nmoles MDA, rat serum; diet 0.3%, 4 days; N = 5
Text: as §1
In this assay the oxidation of serum lipids is initiated with CuSO4, resulting in the formation of aldehydes, such as malondialdehyde (MDA). Upon incubation with thiobarbituric acid, the absorbance of the aldehydes can be detected at 530-540 nm. As stated in the previous example, TBARS values which are lower than control serum values indicate the relative ability of a test compound to inhibit the oxidation of lipids in a sample. Measure TBARS as follows: mix 100µL of serum with 400µL of a 5mmol CuSO4 solution and incubate at 37°C for 3 hr. Stop the reactions by addition of 1.0mL of 20% trichloroacetic acid. Then add 1.0mL of 0.67% thiobarbituric acid in 0.05 N sodium hydroxide, mix, and incubate the samples for 30 min at 90°C. Centrifuge samples briefly to pellet undissolved material, and transfer the supernatants to a 96-well microtiter plate. Measure absorbances at 540 nm using a Biotek model EL311 microplate reader. The nmoles of MDA produced are calculated from a standard curve of 0 to 10 nmoles of MDA prepared from malonaldehyde bis(dimethylacetal). Serum samples from treated rats are compared to serum samples from control rats that received no MDL compound.

[5] = Animal parameters (food, body weight, liver weight/body weight, mortality) in rats; assay type: in vivo; conditions: 4 days; for food / lw/bw / body wt.: % of control, diet 0.3%, N = 5; for food: grams eaten per day per rat; for lw/bw: liver weight/body weight; for lw/bw / body wt. / mortality: rat; for body wt.: weight in grams; for mortality: male, Sprague-Dawley, in vivo
Text: as §1

[6] = total cholesterol in rat serum, read-out: CHOL
[7] = triglycerides in rat serum, read-out: TRIG
[8] = parent compound concentration in rat liver, read-out: Liver Parent
[9] = parent compound concentration in rat serum, read-out: Serum Parent

SMILES: CC(C)=CCC[C@H](C)CCOc1ccc(O)c(C(C)(C)C)c1 (stereo in doubt) [MDL 103,649, Phenol, 2-(1,1-dimethylethyl)-4-[(3,7-dimethyl-6-octenyl)oxy]-, (S)-]
- ALT [1]: 119%
- ALP [1]: 74%
- AST [1]: 82%
- GLUC [1]: 101%
- response vs control in vivo at 0.3 % in diet [1, 6]: 89%
- response vs control in vivo at 0.3 % in diet [1, 7]: 143%
- concentration at 5 day [2, 8]: 0 ng/g
- concentration at 5 day [2, 9]: 1400 ng/mL
- CONJ. DIENE [3]: 375 min
- TBARS [4]: 29%
- food [5]: 95%
- lw/bw [5]: 111%
- body wt. [5]: 94%
- mortality [5]: 0%

SMILES: CC(C)=CCC[C@H](C)CCSc1ccc(O)c(C(C)(C)C)c1 [MDL 103,714, Phenol, 2-(1,1-dimethylethyl)-4-[(3,7-dimethyl-6-octenyl)thio]-, (S)-]
- ALT [1]: 120%
- ALP [1]: 111%
- AST [1]: 104%
- GLUC [1]: 95%
- response vs control in vivo at 0.3 % in diet [1, 6]: 90%
- response vs control in vivo at 0.3 % in diet [1, 7]: 122%
- concentration at 5 day [2, 8]: 0 ng/g
- concentration at 5 day [2, 9]: 2700 ng/mL
- TBARS [4]: 21%
- food [5]: 102%
- lw/bw [5]: 121%
- body wt. [5]: 103%
- mortality [5]: 0%

SMILES: CC(C)CCCC(C)CCOc1cc(C(C)(C)C)c(O)c(C(C)(C)C)c1 (stereo not shown) [MDL 104,102, Phenol, 2,6-bis(1,1-dimethylethyl)-4-[(3,7-dimethyloctyl)oxy]-]
- ALT [1]: 114%
- ALP [1]: 101%
- AST [1]: 82%
- GLUC [1]: 98%
- response vs control in vivo at 0.3 % in diet [1, 6]: 100%
- response vs control in vivo at 0.3 % in diet [1, 7]: 127%
- concentration at 5 day [2, 8]: 481000 ng/g
- concentration at 5 day [2, 9]: 32800 ng/mL
- CONJ. DIENE [3]: 229 min
- TBARS [4]: 71%
- food [5]: 92%
- lw/bw [5]: 121%
- body wt. [5]: 97%
- mortality [5]: 0%

SMILES: CC(CCCC(C)(C)O)CCSc1cc(C(C)(C)C)c(O)c(C(C)(C)C)c1 (stereo not shown) [MDL 104,487, Phenol, 2,6-bis(1,1-dimethylethyl)-4-[(7-hydroxy-3,7-dimethyloctyl)thio]-]
- ALT [1]: 129%
- ALP [1]: 137%
- AST [1]: 124%
- GLUC [1]: 92%
- response vs control in vivo at 0.3 % in diet [1, 6]: 127%
- response vs control in vivo at 0.3 % in diet [1, 7]: 108%
- concentration at 5 day [2, 8]: 3800 ng/g
- concentration at 5 day [2, 9]: 4100 ng/mL
- TBARS [4]: 87%
- food [5]: 90%
- lw/bw [5]: 150%
- body wt. [5]: 95%
- mortality [5]: 0%

SMILES: CC(C)=CCCC(C)CCOc1ccc(O)c(C(C)(C)C)c1 (stereo not shown) [MDL 105,411, Phenol, 2-(1,1-dimethylethyl)-4-[(3,7-dimethyl-6-octenyl)oxy]-]
- ALT [1]: 122%
- ALP [1]: 76%
- AST [1]: 87%
- GLUC [1]: 96%
- response vs control in vivo at 0.3 % in diet [1, 6]: 105%
- response vs control in vivo at 0.3 % in diet [1, 7]: 100%
- concentration at 5 day [2, 8]: 0 ng/g
- concentration at 5 day [2, 9]: 1100 ng/mL
- CONJ. DIENE [3]: 400 min
- TBARS [4]: 29%
- food [5]: 95%
- lw/bw [5]: 114%
- body wt. [5]: 101%
- mortality [5]: 0%

SMILES: CC(C)=CCC[C@H](C)CCOc1cc(C(C)(C)C)c(O)cc1C(C)(C)C [MDL 107,059, Phenol, 2,5-bis(1,1-dimethylethyl)-4-[(3,7-dimethyl-6-octenyl)oxy]-, (S)-]
- ALT [1]: 116%
- ALP [1]: 118%
- AST [1]: 140%
- GLUC [1]: 96%
- response vs control in vivo at 0.3 % in diet [1, 6]: 89%
- response vs control in vivo at 0.3 % in diet [1, 7]: 35%
- concentration at 5 day [2, 8]: 0 ng/g
- concentration at 5 day [2, 9]: 0 ng/mL
- CONJ. DIENE [3]: 201 min
- TBARS [4]: 78%
- food [5]: 95%
- lw/bw [5]: 107%
- body wt. [5]: 95%
- mortality [5]: 0%
